This is an account of results in patent US20100210564A1, “DRUG OR FOOD CONTAINING A PEPTIDE” (Kyoto University, priority 2009, published 2010).

Test [1] deals with mice. Description: Elevated plus-maze test, YL in combination with antagonists for various receptors. In kind it is in vivo, mouse. As to conditions: in words. From the text:
(§1) The elevated plus-maze (EPM) consisted of two open arms (25×5 cm) and two closed arms (25×5×15 cm), which were joined to a central platform 50 cm high above the floor (see FIG. 1). Because the closed arms were surrounded by fences, a mouse could safely walk in the closed arms irrespective of their elevated position. On the other hand, because the open arms were not surrounded by fences, a mouse walking along the open arms would feel anxious that it might fall down from the elevated position. Therefore, the more time the mouse spent in the open arms, or the greater the number of entries to the open arms, the less anxious the mouse was feeling; thus, the anxiolytic activity was determined based on these indices.
(§2) A mouse was placed on a portion of the central platform facing one of the open arms, and the test was started. During a test time of 5 minutes, the cumulative time spent in the open arms (abbr.: time in open arms), the number of visits to the open arms (abbr.: visit to open arms), and the total number of visits to any of the arms (abbr.: total visits) were recorded. The percentage of the time spent in the open arms and the percentage of the number of visits to the open arms were calculated as indices of anxiety.

In test [2] the test system is mice. In words: Elevated plus-maze test, anxiolytic effects. Format: in vivo, mouse. As to conditions: for Minimum Effective Dose (mg/kg, i.p.): elevated plus-maze, ( ) = showed tendency, — = no anxiolytic effects. As to the method:
In the present invention, the anxiolytic effects can be evaluated by the elevated plus-maze test, developed and widely used as a method for evaluating anxiety-related behaviors to screen anxiolytic drugs (FIG. 1). Specifically, the test is performed as follows: a candidate substance for an anxiolytic drug is orally or intraperitoneally administered to a mouse; 30 minutes after the administration, the mouse is placed in an elevated plus-maze; and the potency of the anxiolytic effects is evaluated based on the number of entries to the open arms and a change in the times spent on the open arms.
as §1, §2
The data obtained from the elevated plus-maze test were represented as the means±SEM. The data were analyzed by 1-way or 2-way ANOVA, followed by the Fisher test for multiple comparisons.
(§3) Each of YL (Example 1 and Comparative Example 3), FL (Example 2), YI (Example 3), FI (Example 4), LY (Example 5), LF (Example 6), IY (Example 7), IF (Example 8), YLY (Example 9), YLQ (Example 10), LYL (Example 11), YLYEIAR (Example 12), YV (Example 13), WL (Example 14), LW (Example 15), HL (Example 16), Y (Comparative Example 1), and Y, L (Comparative Example 2) dissolved in physiological saline was administered intraperitoneally (i.p.) or orally (p.o.) to mice (n=3 to 14) in the amounts shown in each figure before the mice were placed in the elevated plus-maze. The percentage of the time spent in the open arms, the percentage of the number of visits to the open arms, and the total number of visits to the arms (total visits) were compared among groups administered each peptide or amino acid, and a control group (0 mg/kg). YL was investigated for its anxiolytic effects by the open-field test. The results are shown in FIGS. 2 to 14, FIGS. 22 to 27, and Table 3.

Another test concerns the target ACE (Homo sapiens, UniProt P12821). Description: ACE inhibitory effects. As to conditions: comparison of YL with IY. In kind it is biochemical.
Test [3] relates to mice. Description: Open-field test. In kind it is in vivo, mouse. As to the method: The open-field used in this experiment was a cylindrical gray apparatus with a diameter of 60 cm and a height of 50 cm, which is divided into 25 sections with black lines. […] However, once a mouse is administered an anxiolytic drug, the time spent in the circle at the center and the number of entries thereto increase.
as §3

[4] abbreviates: 0.1 mg/kg, i.p., mean ± SEM (n = 6), p < 0.05 vs cont.

“Also recorded” adds a separate entry of the source.

ACE, sequence (P12821 30-1306, species assumed): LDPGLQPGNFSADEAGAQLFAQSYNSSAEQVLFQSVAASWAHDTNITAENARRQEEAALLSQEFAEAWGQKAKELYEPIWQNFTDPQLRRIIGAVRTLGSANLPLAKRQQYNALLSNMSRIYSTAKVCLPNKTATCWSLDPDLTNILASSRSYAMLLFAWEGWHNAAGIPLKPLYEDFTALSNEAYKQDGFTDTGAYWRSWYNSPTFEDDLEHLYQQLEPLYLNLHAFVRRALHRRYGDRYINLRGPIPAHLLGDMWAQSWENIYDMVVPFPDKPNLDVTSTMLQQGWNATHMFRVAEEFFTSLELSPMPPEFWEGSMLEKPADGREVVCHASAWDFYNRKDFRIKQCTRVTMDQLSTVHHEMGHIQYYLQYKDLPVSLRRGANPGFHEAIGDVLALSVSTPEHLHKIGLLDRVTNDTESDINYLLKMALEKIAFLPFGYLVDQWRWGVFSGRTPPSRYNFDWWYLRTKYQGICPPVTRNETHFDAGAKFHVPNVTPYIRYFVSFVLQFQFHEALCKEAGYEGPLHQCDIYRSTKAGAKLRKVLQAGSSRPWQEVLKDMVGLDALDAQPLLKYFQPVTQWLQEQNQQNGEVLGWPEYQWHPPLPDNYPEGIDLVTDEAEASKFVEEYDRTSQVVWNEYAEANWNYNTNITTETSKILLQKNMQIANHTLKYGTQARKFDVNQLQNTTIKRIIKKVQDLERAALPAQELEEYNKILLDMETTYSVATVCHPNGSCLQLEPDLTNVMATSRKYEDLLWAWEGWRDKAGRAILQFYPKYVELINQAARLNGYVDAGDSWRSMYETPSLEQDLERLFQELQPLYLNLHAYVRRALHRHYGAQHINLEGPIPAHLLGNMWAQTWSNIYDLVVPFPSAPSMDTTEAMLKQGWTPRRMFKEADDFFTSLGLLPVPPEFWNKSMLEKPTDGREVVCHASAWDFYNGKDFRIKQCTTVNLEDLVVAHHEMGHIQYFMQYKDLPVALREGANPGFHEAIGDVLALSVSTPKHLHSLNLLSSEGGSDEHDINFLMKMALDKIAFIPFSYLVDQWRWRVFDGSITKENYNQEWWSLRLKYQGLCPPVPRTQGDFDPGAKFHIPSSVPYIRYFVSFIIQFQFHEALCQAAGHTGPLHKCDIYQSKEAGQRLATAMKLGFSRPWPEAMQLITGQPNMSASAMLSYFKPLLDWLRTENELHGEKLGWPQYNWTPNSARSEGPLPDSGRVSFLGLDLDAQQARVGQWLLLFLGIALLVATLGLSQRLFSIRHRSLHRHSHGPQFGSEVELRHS

Turning to `OC(CCCN1CCN(c2ncc(F)cn2)CC1)c1ccc(F)cc1` (stereo not shown) [BMY14802], in the test with mice [1], the “effect of the antagonist/inhibitor on the anxiolytic effects of the peptides of the invention” value (“effect of the antagonist/inhibitor” for short) is “not blocked”. `CC(C)C[C@H](N)C(=O)O` [L, Leu, reference compound]: the “anxiolytic effects in the elevated plus-maze experiment (in words)” value (“anxiolytic effects … (in words)” for short) in the test with mice [2] was “no anxiolytic effects”. In the case of `COc1ccccc1N1CCN(CC(C(=O)NC(C)(C)C)c2ccccc2)CC1` (stereo not shown) [WAY100135], the “effect of the antagonist/inhibitor” value with mice [1] is recorded as “blocked”. `N[C@@H](Cc1ccc(O)cc1)C(=O)O` [Y, Tyr, reference compound]: the “anxiolytic effects … (in words)” value with mice [2] was “no anxiolytic effects”.

For `CCOC(=O)c1ncn2c1CN(C)C(=O)c1cc(F)ccc1-2` [flumazenil], the “effect of the antagonist/inhibitor” value in the test with mice [1] is “significantly blocked”.

On to `COc1ccc2c(c1)c(CC(=O)O)c(C)n2C(=O)c1ccc(Cl)cc1` [indomethacin], for which the “effect of the antagonist/inhibitor” value with mice [1] is “not blocked”.

With `C=CCN1CC[C@]23c4c5ccc(O)c4O[C@H]2C(=O)CC[C@@]3(O)[C@H]1C5` [naloxone], in the test on mice [1], the “effect of the antagonist/inhibitor” value is given as “not blocked”. As for `Oc1ccc2c3c1O[C@H]1c4[nH]c5ccccc5c4C[C@@]4(O)[C@@H](C2)N(CC2CC2)CC[C@]314` [naltrindole], the “effect of the antagonist/inhibitor” value in the test on mice [1] is recorded as “not blocked”. As to His-Leu [HL], the “Minimum Effective Dose (mg/kg, i.p.)” value in the test on mice [2] is given as 0.1 mg/kg. The same measure, in the same setting: the result for Ile-Tyr [IY] reads 10 mg/kg. With Phe-Leu [FL], in the test with mice [2], the “Minimum Effective Dose (mg/kg, i.p.)” value was found to be 0.1 mg/kg. Still for that read-out and setting: the result for Trp-Leu [WL] reads 0.1 mg/kg. Tyr-Leu [YL]: on ACE, the ACE inhibitory effects entry is recorded as “weaker than those of IY”. Further, in the test on mice [2], the “anxiolytic effects … (in words)” value is “stronger anxiolytic effects; also recorded: at least equivalent to those of diazepam” and the “Minimum Effective Dose (mg/kg, i.p.)” value was found to be 0.1 mg/kg. Besides, in the test with mice [3] (setting [4]), the “Time in Center Circle (%)” value was 2.06 ± 0.234 % and the “Visits to Center Circle (%)” value is given as 3.02 ± 0.404 %. The “efficacy in the open-field test (in words)” value in the test on mice [3] (mice) is given as “demonstrated its efficacy”. Consider “YLYEIAR [peptide; Y Tyr, L Leu, E Glu, I Ile, A Ala, R Arg]”, for which, in the test on mice [2], the “Minimum Effective Dose (mg/kg, i.p.)” value was 0.3 mg/kg.
